Data on three compounds can be found in PMC4177916, “Characterization of the Sterol and Phosphatidylinositol 4-Phosphate Binding Properties of Golgi-Associated OSBP-Related Protein 9 (ORP9)” (PLoS ONE, 2014).

Holding throughout (assay type): binding
The target in one assay is T1, Osh6 (Saccharomyces cerevisiae, UniProt Q02201).
T1 construct: hexahistidine-SUMO3-tagged, expressed in bacteria
T1 sequence (Q02201 1-448): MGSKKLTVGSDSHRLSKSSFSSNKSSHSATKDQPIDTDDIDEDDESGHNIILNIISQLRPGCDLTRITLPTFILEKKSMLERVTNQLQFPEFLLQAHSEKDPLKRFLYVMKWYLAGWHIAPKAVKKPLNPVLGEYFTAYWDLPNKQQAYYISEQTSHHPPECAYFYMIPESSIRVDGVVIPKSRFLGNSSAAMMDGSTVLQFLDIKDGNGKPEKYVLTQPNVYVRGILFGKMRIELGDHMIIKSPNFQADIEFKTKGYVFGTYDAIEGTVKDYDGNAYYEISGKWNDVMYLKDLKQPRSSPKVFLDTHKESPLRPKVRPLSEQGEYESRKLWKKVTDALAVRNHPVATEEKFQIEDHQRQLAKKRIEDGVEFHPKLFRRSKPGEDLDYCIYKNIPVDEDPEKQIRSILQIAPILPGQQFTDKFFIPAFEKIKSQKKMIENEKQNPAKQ
Briefly: [3H]PS extraction from liposomes, sedimentation. The following applies: 100 pmol protein; pH 7.4, 25 °C, 20 min; labelled compound.

Assay [1] concerns the target T2, ORP9L (Homo sapiens, UniProt Q96SU4).
T2 construct: gene OSBPL9; full-length long variant, C-terminal V5-His tag (stated for the HH/AA mutant)
T2 sequence (Q96SU4 2-736): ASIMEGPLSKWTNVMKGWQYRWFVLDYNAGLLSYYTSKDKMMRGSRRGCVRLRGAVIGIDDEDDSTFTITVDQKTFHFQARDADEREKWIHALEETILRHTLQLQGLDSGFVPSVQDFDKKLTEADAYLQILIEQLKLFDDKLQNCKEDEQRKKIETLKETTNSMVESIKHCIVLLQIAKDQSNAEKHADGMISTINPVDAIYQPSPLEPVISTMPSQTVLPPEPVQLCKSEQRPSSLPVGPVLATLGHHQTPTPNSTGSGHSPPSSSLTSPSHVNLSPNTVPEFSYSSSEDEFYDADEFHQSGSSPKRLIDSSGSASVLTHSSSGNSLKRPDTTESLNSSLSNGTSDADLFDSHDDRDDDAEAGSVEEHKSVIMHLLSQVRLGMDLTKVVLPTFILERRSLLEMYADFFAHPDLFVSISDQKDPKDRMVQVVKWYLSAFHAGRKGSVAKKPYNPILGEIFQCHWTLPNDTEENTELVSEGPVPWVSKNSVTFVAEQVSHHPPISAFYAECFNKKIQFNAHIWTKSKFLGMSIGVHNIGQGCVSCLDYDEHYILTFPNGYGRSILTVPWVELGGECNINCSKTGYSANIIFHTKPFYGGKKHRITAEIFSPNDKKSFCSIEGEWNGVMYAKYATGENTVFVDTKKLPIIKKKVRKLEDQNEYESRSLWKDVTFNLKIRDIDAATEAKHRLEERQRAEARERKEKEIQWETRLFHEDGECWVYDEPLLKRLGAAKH
In words: inhibition of CTL extraction from liposomes (FRET). Conditions: equimolar cholesterol and CTL (2.5 mol% each); pH 7.4, 30 °C.

In assay [2] the target is T3, ORP9L (Homo sapiens, UniProt Q96SU4, H501A/H502A, form not given).
T3 construct: gene OSBPL9; full-length long variant, C-terminal V5-His tag (stated for the HH/AA mutant)
T3 sequence (Q96SU4 2-736 H501A/H502A): T2 sequence (Q96SU4 2-736) with H500A, H501A
In words: […]PI-4P extraction from liposomes, sedimentation. The following applies: 100 pmol protein; pH 7.4, 25 °C, 20 min; labelled compound.

In assay [3] the target is T2, ORP9L. Described as above. The following applies: pH 7.4, 25 °C, 20 min; 0.1 mM liposomes with 0.5 mol% PI-4P; labelled compound.
A further assay has as its target T4, ORP9S (Homo sapiens, UniProt Q96SU4).
T4 construct: gene OSBPL9; short variant lacking N-terminal PH domain, His-tagged
T4 sequence (Q96SU4 100-736 limits assumed): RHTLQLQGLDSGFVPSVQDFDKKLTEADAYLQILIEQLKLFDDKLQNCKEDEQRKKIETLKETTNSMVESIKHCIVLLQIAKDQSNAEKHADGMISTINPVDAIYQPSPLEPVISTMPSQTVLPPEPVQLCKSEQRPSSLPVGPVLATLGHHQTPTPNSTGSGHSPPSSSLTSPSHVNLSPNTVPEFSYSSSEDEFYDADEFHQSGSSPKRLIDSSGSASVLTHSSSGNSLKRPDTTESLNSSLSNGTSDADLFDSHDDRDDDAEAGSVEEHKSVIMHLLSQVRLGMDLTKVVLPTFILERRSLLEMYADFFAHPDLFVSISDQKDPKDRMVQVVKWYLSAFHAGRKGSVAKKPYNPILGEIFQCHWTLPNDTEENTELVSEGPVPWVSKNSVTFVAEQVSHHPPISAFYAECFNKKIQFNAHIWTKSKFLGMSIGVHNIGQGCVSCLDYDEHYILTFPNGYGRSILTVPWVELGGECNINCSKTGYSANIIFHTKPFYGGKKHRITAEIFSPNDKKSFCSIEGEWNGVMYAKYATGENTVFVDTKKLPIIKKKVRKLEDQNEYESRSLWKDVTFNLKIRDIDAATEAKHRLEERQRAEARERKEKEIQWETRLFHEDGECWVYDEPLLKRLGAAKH
The assay is described as above. The following applies: pH 7.4, 25 °C, 20 min; 0.1 mM liposomes with 0.5 mol% PI-4P; labelled compound.

Positions count from the first letter of the chain named.

phosphatidylserine: the “% extraction” value on Osh6 is on record as ~ 2%.

Turning to `CC(C)CCC[C@@H](C)[C@H]1CC[C@H]2[C@@H]3CC=C4C[C@@H](O)CC[C@]4(C)[C@H]3CC[C@]12C` [cholesterol], at ORP9L [1], the “% inhibition of CTL extraction” value came out at 50%.

Take PI-4P: the “% reduction of extraction versus wild type” value at ORP9L [2] is over 75%. Moreover, at ORP9L [3], the “% maximal extraction” value is reported as 9%. Moreover, at ORP9S, the “% extraction” value is 14%.
